The values below come from patent publication US20170044230A1 (USTAV ORGANICKE CHEMIE A BIOCHEMIE AV CR, V.V.I., priority 2014, published 2017).

“Also recorded” adds a separate entry of the source. Non-standard residues stand in square brackets, D forms with d. Residues, ends and D or L forms follow the SMILES beside them. *: point of attachment. 1Nal = N[C@@H](Cc1cccc2ccccc12)C(=O)O; Myristoyl = CCCCCCCCCCCCCC(=O)*; Dap = NC[C@H](N)C(=O)O; Sar = CNCC(=O)O

One data set relates to fed C57BL/6 male mice. Briefly: Effect of SC administered ghrelin analogs on food intake. Type of data set: in vivo. The following applies: for maximal effect at 5 mg/kg on food intake: SC 5 mg/kg, evaluated 480 min after administration; for ED50 (250 min after injection), effect on food intake: SC. As to the method:
All of the experiments followed the ethical guidelines for animal experiments and Czech Republic law 246/1992 and were approved by the committee for experiments with laboratory animals of the Academy of Sciences of the Czech Republic. Male C57BL/6 mice (Charles River, Germany) were housed at a temperature 22±2° C. under a daily cycle of 12/12 h light/dark (light from 6:00) with free access to water and a standard chow diet St-1 which contained […] of calories from protein, fat and carbohydrate, respectively, and its energy content was 3.4 kcal/g (Mlýn Kocanda, Praha, Czech Republic). Mice were placed into separate cages for one week before experiment, they had free access to water and food pellets. Closely before the experiment, the food pellets were removed from the cages. […] 15 min after the injection, mice were given preweighed food pellets. Food intake was monitored for 8-10 hours at 30-min intervals. Mice had free access to water during the experiment. Experiments were performed at least twice for each tested compound, each experimental group had at least 5 mice.
Data from food intake experiments were analyzed by one-way ANOVA followed by Dunnett's post-hoc test using GraphPad Prism Software (San Diego, Calif., USA), P<0.05 was considered statistically significant. ED50 values were calculated using GraphPad Prism Software as the dose of the tested compound required to elicit half-maximal effect at 250 min after administration of the corresponding compound.
Food intake was monitored for […] after administration of the compounds. ED50 values were determined 250 min after administration. Maximal effect on food intake was evaluated […] after administration of the compounds at a dose of 5 mg/kg of body weight. NT—not tested.

Data set [1] relates to rat model of aortic stenosis-induced cachexia. Briefly: Rat model of aortic stenosis-induced cachexia. Type of data set: in vivo. The following applies: 28-day continuous IP infusion. The method, then: Cachexia induced through the aortic stenosis (AS) was made in male Wistar rats, aged 8-9 months (Harlan, Italy). Rats were housed at a temperature of 22±2° C. under a daily cycle of 12/12 h light/dark (light from 6:00) with free access to water and a standard chow diet (Altromin, Germany).
The animals were anesthetized with isoflurane and the aortic stenosis was induced via abdominal incision. […] A steel wire (diameter 0.4 mm) was placed alongside the isolated aorta, both were gently tightened with a stitch (3-0 silk tread), and the wire was removed accordingly. […] Finally, the abdomen was sutured and the animals were kept in standard conditions with free access to regular rat chow and water ad libitum. The Sham group consisted of sham-operated rats prepared by a similar surgical treatment without aortic stenosis.
Mortality was about 5% within 72 h after stenosis. All animal experiments were approved by the Institutional Animal Experimental Ethics Committee of the Institute of Physiology AS CR. […] 2 dissolved in vehicle (2.5 mg/kg of body weight per day) for 28 days (n=5). Food intake and body weight of the rats was monitored every day.

A further data set has as its target T1, human GHS-R1a receptor (Homo sapiens, UniProt Q92847).
T1 construct: purchased Multispan, Hayward, Calif., USA; host or cells: HEK293T cells, isolated plasma membranes
Description: Competitive binding studies (displacement of 125I-ghrelin). The settings on record: relative to ghrelin = 100. As to the method: Isolated plasma membranes from the HEK293T cells with transfected human GHS-R1a receptor (Multispan, Hayward, Calif., USA) were used. […] Experiments were carried out in duplicates at least three times. Competitive binding curves were plotted using GraphPad Prism Software (San Diego, Calif., USA) while comparing the best fit for single binding sites models.
On the technique in general: In a radioligand displacement assay an active substance lowers the binding of a labelled ligand.

Data set [2] relates to rat model of subtotal nephrectomy. Description: Rat model of renal cachexia (subtotal nephrectomy, SNx). Type of data set: in vivo. The method, then: Male F344 rats (Harlan, Italy) were housed at a temperature of 22±2° C. under a daily cycle of 12/12 h light/dark (light from 6:00) with free access to water and a standard chow diet St-1 (Mlýn Kocanda, Praha, Czech Republic).
To induce renal dysfunction, 5/6 nephrectomy was performed to anesthetized 8-week-old rats (SNx group, n=14); the control group was sham-operated (Sham group, n=6). Starting from the following day, the rats were SC injected with saline or ghrelin analog no. 2 (5 mg/kg of body weight, dissolved in saline) for 15 days. Food intake and body weight of the rats was monitored every day. At the end of the experiment, blood was collected for determination of pro-inflammatory cytokines using the Milliplex MAP Rat Cytokine/Chemokine Magnetic Bead Panel (Merck-Millipore, St. Charles, Mo., USA).

The subject of data set [3] is 4-5-week old male C57BL/6 mice. Briefly: Growth hormone (GH) release after SC administration to young mice. Format: in vivo. The following applies: 10 min after SC 5 mg/kg. The method, then:
4 and 14 at a dose of 5 mg/kg of body weight (0.2 ml/mouse). 10 min after the injection, blood was collected, plasma was prepared and stored at −20° C. until use. GH levels in the plasma samples were determined by Rat/Mouse Growth Hormone ELISA kit (Merck-Millipore, St. Charles, Mo., USA). Ghrelin analogs no.

The nature of data set [4]: Pharmacokinetics in vivo after SC administration to mice. The settings on record: SC 5 mg/kg. The method, then: Mice were housed at a temperature 22±2° C. under a daily cycle of 12/12 h light/dark (light from 6:00) with free access to water and a standard chow diet St-1 (Mlýn Kocanda, Praha, Czech Republic).
4, 6, 14 and 18 at a dose of 5 mg/kg of body weight (0.2 ml/mouse, n=4). Blood was collected from tails before injection and 0.5, 1, 2, 4, 8, 16 and 24 h after injection. Plasma was separated and stored at −20° C.

Setting [5] is: 15-day SC 5 mg/kg, vs SNx/saline, 5 mg/kg.

T1 sequence (Q92847 whole entry): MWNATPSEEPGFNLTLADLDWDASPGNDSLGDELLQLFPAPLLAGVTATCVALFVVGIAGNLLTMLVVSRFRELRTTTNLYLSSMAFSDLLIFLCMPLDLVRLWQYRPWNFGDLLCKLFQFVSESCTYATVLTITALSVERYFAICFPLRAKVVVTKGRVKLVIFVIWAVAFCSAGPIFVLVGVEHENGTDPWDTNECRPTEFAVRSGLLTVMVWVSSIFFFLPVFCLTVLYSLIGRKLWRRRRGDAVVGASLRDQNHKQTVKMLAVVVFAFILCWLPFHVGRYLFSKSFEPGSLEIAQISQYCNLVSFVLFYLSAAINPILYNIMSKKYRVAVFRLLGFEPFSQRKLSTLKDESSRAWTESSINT

Regarding `CCCCCCCCCCCCCC(=O)NC[C@H](NC(=O)[C@H](CO)NC(=O)CNC)C(=O)N[C@@H](Cc1ccccc1)C(=O)N[C@@H](CC(C)C)C(=O)N[C@@H](CO)C(=O)N1CCC[C@H]1C(=O)N[C@@H](CCC(=O)O)C(=O)N[C@@H](Cc1c[nH]cn1)C(=O)N[C@@H](CCC(N)=O)C(=O)N[C@@H](CCCCN)C(=O)N[C@@H](C)C(=O)N[C@@H](CCC(N)=O)C(=O)N[C@@H](CCC(N)=O)C(=O)N[C@@H](CCCNC(=N)N)C(=O)N[C@@H](CCCCN)C(=O)N[C@@H](CCC(=O)O)C(=O)N[C@@H](CO)C(=O)N[C@@H](CCCCN)C(=O)N[C@@H](CCCCN)C(=O)N1CCC[C@H]1C(=O)N1CCC[C@H]1C(=O)N[C@@H](C)C(=O)N[C@@H](CCCCN)C(=O)N[C@@H](CC(C)C)C(=O)N[C@@H](CCC(N)=O)C(=O)N1CCC[C@H]1C(=O)N[C@@H](CCCNC(=N)N)C(=O)O` [Analog 2], the “maximal effect at 5 mg/kg on food intake” value in the data set with fed C57BL/6 male mice is 202.7 % of Dpr^3ghr. Also, the “ED50 (250 min after injection), effect on food intake” value in the data set with fed C57BL/6 male mice (fed mice) worked out at 3.80 mg/kg. Further, the cachectic state entry in data set [1] was “improved the cachectic state”; in data set [2] (repeated SC administration, SNx rats), “improved the cachectic state”. Moreover, the “body weight of AS rats” value in data set [1] (2.5 mg/kg per day) is “significantly increased body weight”. Also, the “% of ghrelin binding” value at human GHS-R1a receptor worked out at 54%. Besides, the “levels of anti-inflammatory cytokine IL-10 (in words)” value in data set [2] (15-day SC 5 mg/kg, vs SNx/saline) is “significantly increased”. Moreover, the “body weight of SNx rats” value in data set [2] (setting [5]) is listed as “significantly increased body weight”. Also, in data set [2] (setting [5]), the “levels of pro-inflammatory cytokines (in words)” value is “significantly decreased levels of these cytokines; also recorded: reduced blood levels of pro-inflammatory cytokines”.
`CCCCCCCCCCCCCC(=O)NC[C@H](NC(=O)[C@H](CO)NC(=O)CNC)C(=O)N[C@@H](Cc1cccc2ccccc12)C(=O)N[C@@H](CC(C)C)C(=O)N[C@@H](CO)C(=O)N1CCC[C@H]1C(=O)N[C@@H](CCC(=O)O)C(=O)N[C@@H](Cc1c[nH]cn1)C(=O)N[C@@H](CCC(N)=O)C(=O)N[C@@H](CCCCN)C(=O)N[C@@H](C)C(=O)N[C@@H](CCC(N)=O)C(=O)N[C@@H](CCC(N)=O)C(=O)N[C@@H](CCCNC(=N)N)C(=O)N[C@@H](CCCCN)C(=O)N[C@@H](CCC(=O)O)C(=O)N[C@@H](CO)C(=O)N[C@@H](CCCCN)C(=O)N[C@@H](CCCCN)C(=O)N1CCC[C@H]1C(=O)N1CCC[C@H]1C(=O)N[C@@H](C)C(=O)N[C@@H](CCCCN)C(=O)N[C@@H](CC(C)C)C(=O)N[C@@H](CCC(N)=O)C(=O)N1CCC[C@H]1C(=O)N[C@@H](CCCNC(=N)N)C(=O)O` [Analog 4] (H-[Sar]S[Dap](Myristoyl)[1Nal]LSPEHQKAQQRKESKKPPAKLQPR-OH; N-terminus and C-terminus assumed): the “GH levels in plasma” value in data set [3] is reported as “did not alter the GH levels”. The “maximal effect at 5 mg/kg on food intake” value in the data set on fed C57BL/6 male mice was 212.8 % of Dpr^3ghr. In the data set with fed C57BL/6 male mice (SC 0.2, 1, 5 and 10 mg/kg, fed mice), the “orexigenic effect (cumulative food intake), dose dependence” value is reported as “dose-dependent orexigenic effect”. For the same compound, the “ED50 (250 min after injection), effect on food intake” value with fed C57BL/6 male mice (fed mice) was determined as 6.02 mg/kg. The “% of ghrelin binding” value at human GHS-R1a receptor was 57%. The “stability in vivo compared with ghrelin or Dpr^3ghrelin” value in data set [4] is reported as “significantly more stable than ghrelin or Dpr^3ghrelin”.
